From US7786081B2, “Peptide composition” (Pepsyn Ltd., priority 1993, dated 2010)

Legend:
[1] = tested on: Human keratinocytes (HatKat); assay: Growth of keratinocytes (cell count, Coulter counter); type: cell-based
Description: Human keratinocytes (HatKat) were grown in keratinocyte growth medium (TCS Cellworks Ltd.) until 20% confluence. Then, in the same medium, the keratinocytes were grown for three days with 0.5% foetal calf serum (FCS), at which point the cells were counted in a Coulter® counter. The cell numbers obtained are set out in Table 3 below.

[2] = known agent, stated drawback; cited from earlier work

Compound: EGF: epidermal growth factor, comparator in the keratinocyte growth test (NSDSECPLSHDGYCLHDGVCMYIEALDKYACNCVVGYIGERCQYRDLKWWELR; UniProt P01133 971-1023, looked up)
- increase in the growth of keratinocytes ([1]; 10 ng/ml EGF vs medium with 0.5% FCS): relatively modest increase
- Number of cells ([1]; Medium with 0.5% FCS + 10 ng/ml EGF, three days, medium alone 23,777): 29,356

Compound: CC1=C(/C=C/C(C)=C/C=C/C(C)=C/C(=O)O)C(C)(C)CCC1 [all-trans retinoic acid]
- erythema at the site of application [2]: produces marked erythema
